For five compounds, Selectivity index and IC50 results are on record in ChEMBL document CHEMBL1146834, “1-Azakenpaullone is a selective inhibitor of glycogen synthase kinase-3 beta” (Bioorg Med Chem Lett, 2004).

The species named for one assay is Homo sapiens. Kind of assay: Relative inhibition of human CDK-1 and GSK3-beta.
Assay [1] concerns the target Cyclin-dependent kinase 1/cyclin B (Homo sapiens, UniProt P06493). Kind of assay: Inhibition of human cyclin-dependent kinase 1-cyclin B. Type of assay: protein-complex assay.
Assay [2] concerns the target Cyclin-dependent kinase 5/CDK5 activator 1 (Homo sapiens, UniProt Q00535). Nature of the assay: Inhibition of human Cyclin-dependent kinase 5-p35nck5a. It counts as protein-complex assay.
The target of assay [3] is Glycogen synthase kinase-3 beta (Homo sapiens, UniProt P49841).
Chain of Glycogen synthase kinase-3 beta (P49841 whole entry): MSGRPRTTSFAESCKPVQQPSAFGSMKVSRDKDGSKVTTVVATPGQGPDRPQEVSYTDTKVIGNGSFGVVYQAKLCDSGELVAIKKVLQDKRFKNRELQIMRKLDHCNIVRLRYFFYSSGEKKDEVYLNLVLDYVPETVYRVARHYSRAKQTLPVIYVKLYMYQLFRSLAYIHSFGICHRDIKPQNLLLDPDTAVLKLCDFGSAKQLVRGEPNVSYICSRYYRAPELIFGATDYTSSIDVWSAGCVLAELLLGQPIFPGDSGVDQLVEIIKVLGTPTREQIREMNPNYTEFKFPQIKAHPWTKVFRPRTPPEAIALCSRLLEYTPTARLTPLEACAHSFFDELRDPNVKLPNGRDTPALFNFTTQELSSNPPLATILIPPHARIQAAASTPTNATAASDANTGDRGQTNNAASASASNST
Description: Inhibition of human glycogen synthase kinase-3 beta

Chain of Cyclin-dependent kinase 5/CDK5 activator 1 (Q00535 whole entry): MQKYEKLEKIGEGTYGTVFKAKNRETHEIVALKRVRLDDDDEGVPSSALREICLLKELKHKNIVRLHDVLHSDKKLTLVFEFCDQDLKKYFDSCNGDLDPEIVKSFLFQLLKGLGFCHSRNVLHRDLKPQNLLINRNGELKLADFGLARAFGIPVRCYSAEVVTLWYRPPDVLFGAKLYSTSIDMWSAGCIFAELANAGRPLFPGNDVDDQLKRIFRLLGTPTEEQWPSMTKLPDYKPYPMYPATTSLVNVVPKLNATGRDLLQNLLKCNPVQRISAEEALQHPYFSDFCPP
Chain of Cyclin-dependent kinase 5/CDK5 activator 1 (Q15078 whole entry, further chain): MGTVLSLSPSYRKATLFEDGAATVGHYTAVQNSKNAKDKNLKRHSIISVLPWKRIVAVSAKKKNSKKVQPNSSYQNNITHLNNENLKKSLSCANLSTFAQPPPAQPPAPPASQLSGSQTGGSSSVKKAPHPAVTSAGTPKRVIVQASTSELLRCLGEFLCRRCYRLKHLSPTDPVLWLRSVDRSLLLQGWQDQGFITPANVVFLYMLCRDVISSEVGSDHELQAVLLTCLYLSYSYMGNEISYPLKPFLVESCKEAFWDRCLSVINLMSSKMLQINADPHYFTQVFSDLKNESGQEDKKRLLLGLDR

The compound `CC(C)c1c(-c2ccc(Cl)cc2)[nH]c2nccnc12` returned a Selectivity index in the assay listed under Homo sapiens of 1.1.
In turn, `O=C1Cc2c([nH]c3ccc(Br)cc23)-c2ncccc2N1` [AZAKENPAULLONE] yielded a 50% inhibitory concentration (IC50) in assay [1] of 2000 nM. That is a single-digit micromolar value.
Consider `O=Nc1c(-c2c(O)[nH]c3ccc(I)cc23)[nH]c2ccccc12`, for which the figures for the half-maximal inhibitory concentration (IC50) in assay [2] and in assay [1] were 20 nM and 25 nM, respectively.
With `O=C1Cc2c([nH]c3ccc(Br)cc23)-c2cccnc2N1`, the concentration for half-maximal inhibition (IC50) worked out at 12000 nM in assay [2], 8400 nM in assay [1] and 6000 nM in assay [3]. The same compound registered a Selectivity index in the assay filed under Homo sapiens of 1.4.
Turning to `NC1=NC(=O)/C(=C2\CCNC(=O)c3[nH]c(Br)cc32)N1` [HYMENIALDISINE], the figures for the IC50 in assay [2] and in assay [1] were 28 nM and 22 nM, respectively.

As usually defined, the IC50 is the concentration that inhibits the measured activity by half. Higher therefore signals a need for much substance.
